Assay results: ChEMBL document CHEMBL5465560, “Selectivity Literature for EUbOPEN Chemogenomic Library” (2024)
One block for each molecule: values may come before it.

How the values were obtained:
[1] = molecular target: Glycogen synthase kinase-3 alpha (Homo sapiens, UniProt P49840); conditions: at 10 µM
[2] = molecular target: T1, Homeodomain-interacting protein kinase 4 (Homo sapiens) (UniProt Q8NE63); conditions: at 10 µM
T1 sequence (whole entry): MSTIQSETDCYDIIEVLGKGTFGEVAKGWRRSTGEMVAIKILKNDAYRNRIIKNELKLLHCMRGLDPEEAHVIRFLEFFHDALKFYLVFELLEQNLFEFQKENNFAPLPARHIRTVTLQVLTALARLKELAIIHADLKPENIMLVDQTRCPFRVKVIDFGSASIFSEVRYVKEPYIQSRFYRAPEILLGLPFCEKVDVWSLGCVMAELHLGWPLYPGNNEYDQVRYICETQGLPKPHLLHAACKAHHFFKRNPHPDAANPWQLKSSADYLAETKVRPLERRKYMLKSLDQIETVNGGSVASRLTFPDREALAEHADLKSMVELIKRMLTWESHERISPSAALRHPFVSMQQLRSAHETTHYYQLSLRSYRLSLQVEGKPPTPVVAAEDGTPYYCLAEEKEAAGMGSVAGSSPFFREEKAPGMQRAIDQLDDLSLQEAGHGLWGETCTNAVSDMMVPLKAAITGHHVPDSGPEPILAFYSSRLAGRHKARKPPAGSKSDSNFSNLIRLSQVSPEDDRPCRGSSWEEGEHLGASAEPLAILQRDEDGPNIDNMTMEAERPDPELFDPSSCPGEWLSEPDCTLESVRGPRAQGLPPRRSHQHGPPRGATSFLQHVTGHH

[3] = molecular target: MAP/microtubule affinity-regulating kinase 3 (Homo sapiens) (UniProt P27448); test: Selectivity interaction (ActivX KiNativ screen (kinase selectivity in THP-1 cell lysates)) EUB0000639a MARK3; assay type: subcellular; conditions: lysate, at 0.04 µM
[4] = Selectivity interaction (Androgen receptor agonist/antagonist FRET assay, rat recombinant ) EUB0000877a AR
D(2) dopamine receptor = D(2) dopamine receptor (Homo sapiens, UniProt P14416); test: Selectivity interaction (Eurofins CEREP Diversity Profile (receptors and ion channels)) EUB0000279b DRD2; conditions: at 10 µM
[5] = molecular target: Serine/threonine-protein kinase MRCK alpha (Homo sapiens) (UniProt Q5VT25); conditions: at 10 µM
[6] = molecular target: T2, Serine/threonine-protein kinase Sgk2 (Homo sapiens) (UniProt Q9HBY8); test: Selectivity interaction (KinomeScan (DiscoverX)) EUB0000229b SGK2; conditions: at 10 µM
T2 sequence (whole entry): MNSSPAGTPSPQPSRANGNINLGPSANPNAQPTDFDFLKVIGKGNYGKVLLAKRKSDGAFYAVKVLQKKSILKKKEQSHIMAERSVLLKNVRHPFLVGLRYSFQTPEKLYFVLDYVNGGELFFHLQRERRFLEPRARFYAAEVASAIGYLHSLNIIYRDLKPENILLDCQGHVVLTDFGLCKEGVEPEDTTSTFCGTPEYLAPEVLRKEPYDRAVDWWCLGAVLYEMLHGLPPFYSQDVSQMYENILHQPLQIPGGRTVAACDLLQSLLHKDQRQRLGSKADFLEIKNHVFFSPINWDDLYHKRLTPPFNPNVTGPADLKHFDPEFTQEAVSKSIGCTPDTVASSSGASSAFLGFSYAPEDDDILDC

[7] = molecular target: Casein kinase II subunit alpha (Homo sapiens, UniProt P68400); test: Selectivity interaction (KinomeScan (DiscoverX)) EUB0000655a CSNK2A1; conditions: at 10 µM
[8] = molecular target: T3, Serine/threonine-protein kinase D1 (Homo sapiens) (UniProt Q15139); test: Selectivity interaction (KinomeScan (DiscoverX)) EUB0000618a PRKD1; conditions: at 10 µM
T3 sequence (whole entry): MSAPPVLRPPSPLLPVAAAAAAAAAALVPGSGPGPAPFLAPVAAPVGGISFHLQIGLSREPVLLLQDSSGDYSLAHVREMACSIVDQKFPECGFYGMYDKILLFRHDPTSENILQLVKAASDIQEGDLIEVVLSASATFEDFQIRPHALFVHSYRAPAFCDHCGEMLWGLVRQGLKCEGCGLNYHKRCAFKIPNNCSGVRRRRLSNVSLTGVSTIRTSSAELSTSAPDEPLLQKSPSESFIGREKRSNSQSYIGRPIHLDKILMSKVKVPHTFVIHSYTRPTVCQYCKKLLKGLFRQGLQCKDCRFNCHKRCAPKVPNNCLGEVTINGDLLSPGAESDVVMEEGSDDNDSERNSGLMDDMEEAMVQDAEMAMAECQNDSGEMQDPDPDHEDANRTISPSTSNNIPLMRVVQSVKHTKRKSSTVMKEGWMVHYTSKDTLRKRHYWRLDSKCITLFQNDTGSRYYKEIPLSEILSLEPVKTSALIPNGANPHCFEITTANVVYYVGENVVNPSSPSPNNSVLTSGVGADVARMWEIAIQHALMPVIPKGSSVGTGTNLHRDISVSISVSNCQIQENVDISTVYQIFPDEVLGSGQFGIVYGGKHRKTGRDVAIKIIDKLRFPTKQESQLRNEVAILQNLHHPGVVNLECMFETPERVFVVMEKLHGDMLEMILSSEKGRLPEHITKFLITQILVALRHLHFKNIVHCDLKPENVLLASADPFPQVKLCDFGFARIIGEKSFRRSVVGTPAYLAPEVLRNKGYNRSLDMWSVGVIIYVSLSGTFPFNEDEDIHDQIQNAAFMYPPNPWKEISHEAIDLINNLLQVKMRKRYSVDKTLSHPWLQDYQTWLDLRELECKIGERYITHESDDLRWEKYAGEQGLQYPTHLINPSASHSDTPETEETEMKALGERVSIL

[9] = molecular target: T4, Dual specificity mitogen-activated protein kinase kinase 6 (Homo sapiens) (UniProt P52564); test: Selectivity interaction (Kinase panel (DSF assay)) EUB0001559a MAP2K6
T4 sequence (whole entry): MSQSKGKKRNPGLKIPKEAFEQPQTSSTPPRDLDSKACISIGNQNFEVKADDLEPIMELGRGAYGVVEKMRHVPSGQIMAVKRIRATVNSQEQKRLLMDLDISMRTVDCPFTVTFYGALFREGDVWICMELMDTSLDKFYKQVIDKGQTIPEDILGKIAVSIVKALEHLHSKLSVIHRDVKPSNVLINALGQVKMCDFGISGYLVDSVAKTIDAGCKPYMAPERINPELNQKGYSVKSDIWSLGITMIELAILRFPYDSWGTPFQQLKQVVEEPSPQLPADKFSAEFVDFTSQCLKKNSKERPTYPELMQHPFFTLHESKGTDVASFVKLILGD

[10] = molecular target: STE20/SPS1-related proline-alanine-rich protein kinase (Homo sapiens) (UniProt Q9UEW8); test: Selectivity interaction (Kinase panel (DSF assay)) EUB0001559a STK39
[11] = molecular target: Serine/threonine-protein kinase Nek7 (Homo sapiens) (UniProt Q8TDX7); test: Selectivity interaction (KinomeScan (DiscoverX)) EUB0000607a NEK7; conditions: at 10 µM
Chain of Serine/threonine-protein kinase Nek7 (Homo sapiens) (Q8TDX7 whole entry, looked up): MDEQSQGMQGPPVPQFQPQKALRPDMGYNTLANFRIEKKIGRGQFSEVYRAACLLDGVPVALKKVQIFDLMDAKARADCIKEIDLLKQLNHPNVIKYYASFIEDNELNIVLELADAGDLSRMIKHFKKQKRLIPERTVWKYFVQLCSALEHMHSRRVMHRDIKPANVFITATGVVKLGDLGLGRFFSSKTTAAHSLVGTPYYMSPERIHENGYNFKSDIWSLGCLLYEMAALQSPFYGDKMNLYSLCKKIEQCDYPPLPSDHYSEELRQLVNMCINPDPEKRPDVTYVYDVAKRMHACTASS

Chain of MAP/microtubule affinity-regulating kinase 3 (Homo sapiens) (P27448 whole entry, looked up): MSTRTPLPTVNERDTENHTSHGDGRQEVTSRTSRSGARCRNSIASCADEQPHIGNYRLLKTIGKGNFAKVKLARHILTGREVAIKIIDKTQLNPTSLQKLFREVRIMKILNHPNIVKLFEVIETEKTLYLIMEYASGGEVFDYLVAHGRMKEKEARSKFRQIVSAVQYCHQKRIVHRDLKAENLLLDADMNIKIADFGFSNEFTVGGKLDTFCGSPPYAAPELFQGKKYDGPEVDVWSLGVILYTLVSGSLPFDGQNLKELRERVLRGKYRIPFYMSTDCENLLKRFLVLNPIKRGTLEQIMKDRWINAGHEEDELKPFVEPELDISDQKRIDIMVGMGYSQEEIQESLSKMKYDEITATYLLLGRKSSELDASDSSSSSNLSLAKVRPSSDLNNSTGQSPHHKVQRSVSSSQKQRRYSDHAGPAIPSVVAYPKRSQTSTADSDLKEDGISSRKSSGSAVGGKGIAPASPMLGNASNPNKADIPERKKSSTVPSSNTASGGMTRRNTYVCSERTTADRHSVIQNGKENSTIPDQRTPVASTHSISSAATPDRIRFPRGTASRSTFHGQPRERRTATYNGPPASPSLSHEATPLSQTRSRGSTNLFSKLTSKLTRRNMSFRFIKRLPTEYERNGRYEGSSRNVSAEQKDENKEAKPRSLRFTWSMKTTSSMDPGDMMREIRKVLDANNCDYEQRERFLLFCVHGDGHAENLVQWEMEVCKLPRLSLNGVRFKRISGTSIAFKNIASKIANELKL
Chain of D(2) dopamine receptor (P14416 whole entry): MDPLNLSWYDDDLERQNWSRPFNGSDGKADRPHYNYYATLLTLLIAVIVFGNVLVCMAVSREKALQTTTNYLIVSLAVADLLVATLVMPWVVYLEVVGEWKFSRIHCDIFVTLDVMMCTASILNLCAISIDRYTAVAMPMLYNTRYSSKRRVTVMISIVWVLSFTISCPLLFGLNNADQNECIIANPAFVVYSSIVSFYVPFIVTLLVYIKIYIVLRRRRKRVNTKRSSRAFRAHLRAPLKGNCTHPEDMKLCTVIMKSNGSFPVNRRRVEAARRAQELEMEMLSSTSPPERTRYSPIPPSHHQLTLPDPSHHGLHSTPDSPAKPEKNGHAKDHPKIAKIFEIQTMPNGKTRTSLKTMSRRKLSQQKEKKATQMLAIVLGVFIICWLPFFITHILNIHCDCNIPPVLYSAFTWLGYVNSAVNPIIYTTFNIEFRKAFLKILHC
Chain of Serine/threonine-protein kinase MRCK alpha (Homo sapiens) (Q5VT25 whole entry): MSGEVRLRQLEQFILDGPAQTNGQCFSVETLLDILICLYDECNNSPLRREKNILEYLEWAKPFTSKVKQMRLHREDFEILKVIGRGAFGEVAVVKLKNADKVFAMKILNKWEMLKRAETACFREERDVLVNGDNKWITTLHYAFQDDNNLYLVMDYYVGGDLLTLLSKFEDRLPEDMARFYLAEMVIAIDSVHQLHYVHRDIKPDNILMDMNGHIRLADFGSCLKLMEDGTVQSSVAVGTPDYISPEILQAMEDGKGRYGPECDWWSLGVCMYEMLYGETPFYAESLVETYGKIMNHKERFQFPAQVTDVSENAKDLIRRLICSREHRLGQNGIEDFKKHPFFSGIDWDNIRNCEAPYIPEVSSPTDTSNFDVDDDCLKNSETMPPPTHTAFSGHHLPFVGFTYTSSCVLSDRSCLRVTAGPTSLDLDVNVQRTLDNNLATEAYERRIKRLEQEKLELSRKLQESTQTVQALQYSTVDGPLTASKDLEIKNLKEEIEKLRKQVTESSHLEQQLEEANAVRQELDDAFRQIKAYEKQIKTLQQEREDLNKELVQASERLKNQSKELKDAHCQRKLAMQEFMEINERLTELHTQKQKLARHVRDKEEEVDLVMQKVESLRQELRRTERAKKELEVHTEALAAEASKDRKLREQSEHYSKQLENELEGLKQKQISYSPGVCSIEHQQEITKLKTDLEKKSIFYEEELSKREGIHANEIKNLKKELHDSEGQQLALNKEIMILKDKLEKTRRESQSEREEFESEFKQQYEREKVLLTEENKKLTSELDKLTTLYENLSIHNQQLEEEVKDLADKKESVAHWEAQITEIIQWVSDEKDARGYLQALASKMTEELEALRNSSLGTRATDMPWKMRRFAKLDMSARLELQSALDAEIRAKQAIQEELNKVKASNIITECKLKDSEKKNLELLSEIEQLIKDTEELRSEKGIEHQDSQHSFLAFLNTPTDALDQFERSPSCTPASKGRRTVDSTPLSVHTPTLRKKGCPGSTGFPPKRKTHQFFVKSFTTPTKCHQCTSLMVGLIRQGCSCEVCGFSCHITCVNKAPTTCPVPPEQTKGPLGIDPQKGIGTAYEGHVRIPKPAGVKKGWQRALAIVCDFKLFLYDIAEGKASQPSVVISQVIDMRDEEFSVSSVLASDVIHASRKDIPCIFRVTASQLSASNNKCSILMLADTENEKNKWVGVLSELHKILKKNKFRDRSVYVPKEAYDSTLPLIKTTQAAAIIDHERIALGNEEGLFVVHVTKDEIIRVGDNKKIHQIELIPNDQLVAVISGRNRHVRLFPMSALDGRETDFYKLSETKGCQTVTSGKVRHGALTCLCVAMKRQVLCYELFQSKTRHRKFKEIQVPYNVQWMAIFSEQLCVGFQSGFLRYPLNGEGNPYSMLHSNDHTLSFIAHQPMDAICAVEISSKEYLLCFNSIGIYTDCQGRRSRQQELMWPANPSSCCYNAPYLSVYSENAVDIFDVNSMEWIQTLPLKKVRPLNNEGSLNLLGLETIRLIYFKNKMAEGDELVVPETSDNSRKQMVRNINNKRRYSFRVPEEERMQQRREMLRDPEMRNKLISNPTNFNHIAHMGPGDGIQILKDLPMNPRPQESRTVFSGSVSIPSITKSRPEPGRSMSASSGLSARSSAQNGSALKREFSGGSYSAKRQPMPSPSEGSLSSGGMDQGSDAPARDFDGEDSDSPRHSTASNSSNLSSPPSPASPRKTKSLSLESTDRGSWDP
Chain of Glycogen synthase kinase-3 alpha (P49840 2-483 limits assumed): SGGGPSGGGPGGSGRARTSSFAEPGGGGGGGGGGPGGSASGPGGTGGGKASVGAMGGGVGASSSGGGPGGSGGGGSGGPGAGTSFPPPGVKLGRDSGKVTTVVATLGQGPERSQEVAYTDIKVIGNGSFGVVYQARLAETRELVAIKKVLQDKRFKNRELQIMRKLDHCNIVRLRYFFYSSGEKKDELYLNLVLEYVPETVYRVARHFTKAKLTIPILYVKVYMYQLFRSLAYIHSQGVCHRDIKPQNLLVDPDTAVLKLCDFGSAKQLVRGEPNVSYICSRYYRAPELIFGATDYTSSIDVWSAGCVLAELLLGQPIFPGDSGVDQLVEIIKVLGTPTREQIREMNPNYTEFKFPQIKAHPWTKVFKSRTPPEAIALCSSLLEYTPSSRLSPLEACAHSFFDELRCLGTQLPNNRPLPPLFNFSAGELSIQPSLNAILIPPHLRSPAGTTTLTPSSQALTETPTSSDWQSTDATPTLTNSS
Chain of Casein kinase II subunit alpha (P68400 whole entry, looked up): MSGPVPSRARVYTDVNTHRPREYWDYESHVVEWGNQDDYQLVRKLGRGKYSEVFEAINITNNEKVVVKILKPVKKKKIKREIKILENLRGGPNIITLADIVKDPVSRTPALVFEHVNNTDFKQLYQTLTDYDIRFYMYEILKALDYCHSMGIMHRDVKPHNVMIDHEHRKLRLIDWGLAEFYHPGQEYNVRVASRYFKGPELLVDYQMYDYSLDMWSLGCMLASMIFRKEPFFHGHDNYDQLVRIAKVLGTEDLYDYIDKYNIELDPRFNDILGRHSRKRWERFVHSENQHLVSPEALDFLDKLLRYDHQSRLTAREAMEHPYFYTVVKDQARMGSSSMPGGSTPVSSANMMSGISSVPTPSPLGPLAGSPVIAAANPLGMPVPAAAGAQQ

Structure (SMILES): Cc1cc([C@@H](C)Nc2ccccc2C(=O)O)c2nc(N3CCOCC3)cc(=O)n2c1 [AZD-6482]
% of control [1]: 100%
% of control [2]: 100%

% of inhibition [3]: -13.3%
Structure (SMILES): CC[C@@H]1[C@H](F)C(=O)N[C@@H]1COc1nccc2cc(C(N)=O)c(OC)cc12 [ZIMLOVISERTIB]

IC50 [4]: > 30 µM
Structure (SMILES): CCC(=O)N1CC[C@H](Nc2ncnc3c2CN(c2cnc(OC)c(C(F)(F)F)c2)CC3)C1 [LENIOLISIB]

% of control (D(2) dopamine receptor): 92%
Structure (SMILES): CC(=O)c1cc(-c2ccccc2OCC2CC2)c2ncccn12

Structure (SMILES): COCC(=O)NC/C=C/c1ccc2ncnc(Nc3ccc(Oc4ccc(C)nc4)c(C)c3)c2c1 [CP-724714]
% of control [5]: 100%

Structure (SMILES): COc1cc(N(C)c2ccnc3ccc(C(F)(F)F)cc23)cc(OC)c1OC
% binding [6]: 80%

Structure (SMILES): CN(C)CCOc1ccc(-c2nc(-c3ccncc3)c(-c3ccc4c(c3)CC/C4=N\O)[nH]2)cc1
% of control [7]: 79%

Structure (SMILES): O[C@H]1CC[C@H](Nc2ncc3nc(Nc4c(F)cc(F)cc4F)n([C@H]4CCOC4)c3n2)CC1
% of control [8]: 46%

dTM [9]: 0 K
dTM [10]: 0.8 K
Structure (SMILES): CN(C(=O)c1cnn2cccnc12)c1cc2c(cc1N1CCOCC1)C(=O)N(C[C@@H](F)C(C)(C)O)C2

Structure (SMILES): CNC(=O)Nc1ccc(-c2nc(N3CC4CCC(C3)O4)c3cnn(C4CCC5(CC4)OCCO5)c3n2)cc1
% of control [11]: 100%
